One block for each molecule: values may come before it. Bridge positions count the residues as written; N and C are the ends. Square brackets hold non-standard residues; d marks the D form. Ends that are not written are not given here. Peptide text beside a SMILES is read from it. S5 = C=CCCC[C@](C)(N)C(=O)O
What was measured:
Neh1 domain of NRF2 = conditions: cited from earlier work
[1] = test system: non-small cell lung cancer (NSCLC) cells; conditions: cited from earlier work
[2] = test system: MAFG-NRF2 protein complex; conditions: cited from earlier work
A549 cells = assay: Confocal microscopy of FITC-labeled peptides, cell permeability; format: cell-based; conditions: FITC-labeled peptide, 100 μM, 90 minutes, A549 cells
Description: To determine whether this was a result of poor cell permeability by compounds N2S and N3S, fluorophore labeled versions of these peptides were generated, and confocal microscopy was used to determine the abilities of these peptides to enter cells (FIG. 5C).
Briefly, A549 cells at 9.5×10^4 cells/ml in 600 μl media were plated on 10 mm glass-bottomed, 24-well plates (Chemglass Life Sciences Cell Culture Plate, 24-Well, Fisher Scientific, Waltham, MA) and cultured for overnight at 37 °C, 5% CO2, in complete growth medium (RPMI supplemented with 10% fetal calf serum, L-glutamine, and non-essential amino acids). The next day, cells were treated with fresh, pre-warmed complete growth medium supplemented with the desired FITC-labeled peptide or DMSO vehicle control at a final concentration of 100 μM FITC labeled peptide and 1% DMSO. After 90 minutes of treatment, cells were washed three times in warm PBS to remove excess peptide from the cell surface and left in modified Krebs-Ringer buffer solution [KRBH: 134 mM NaCl. 3.5 mM KCl. 1.2 mM KH2PO4, 0.5 mM MgSO4, 1.5 mM CaCl2), 5 mM NaHCO3, 10 mM HEPES (pH 7.4)] containing Hoechst stain at 1 μg/ml. Cells were immediately analyzed under a Nikon A1 confocal microscope (Resonant). The images were taken at 20× magnification with fluorescence excitation wavelengths at 409 for the Hoechst and 488 for the FITC. Images were processed using NIS-Elements AR. Dietrich et al., Cell permeable stapled peptide inhibitor of Wnt signaling that targets 0-catenin protein-protein interactions, Cell Chemical Biology 24(8): 958-968.e5 (2017); Dougherty et al., Enhancing the cell-permeability of stapled peptides with a cyclic cell-penetrating peptide, J Medicinal Chemistry 62(22): 10098 (2019).

proteinase K = assay: Proteinase K peptide stability assay; conditions: 10 μg/mL proteinase K
Description: Data are from three independent replicates with standard error indicated. Scale bar indicates 50 μm.
Peptide stability assays were performed using the protocols described in Cromm et al., Protease-resistant and cell-permeable double-stapled peptides targeting the Rab8a GTPase, ACS Chemical Biology 11(8): 2375-2382 (2016). Briefly, 55 μM of peptide was incubated with 10 μg/mL proteinase K for the indicated timepoints. At the end of each time point, 50 μL of the reaction mixture were quenched in 100 μL of a 1:1 mixture acetonitrile/water+1% formic acid (FA). Samples were injected and analyzed on a Triple quad. Analysis was done using an Agilent Technologies 1200 Series attached to an Agilent Technologies 6460 Triple Quad LC/MS. Analysis was performed with a ZORBAX XDB-C18 […], 2.1×50 mm column (Agilent Technologies, Inc., Santa Clara, CA). Eluent A: H2O with 0.1% FA. Eluent B: MeCN with 0.1% FA. Purity analysis utilized the gradient as follows: (A:B, 0.3 mL/min): 95:5, 0 minutes; 95:5, 1 minute; 5:95, 5 minutes; 5:95, 8 minutes: 95:5, 8.5 minutes; 95:5, 12.5 minutes.

His-MafG = target: T1, His-MafG; assay: SPR, pH 7.5
T1 chain: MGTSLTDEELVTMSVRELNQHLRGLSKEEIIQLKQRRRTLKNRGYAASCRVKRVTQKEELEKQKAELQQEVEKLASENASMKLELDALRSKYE

degradation of unstapled peptide at shortest timepoint (proteinase K; 30 minutes): completely degraded
Molecule: Ac-DEKEKLLKEKGENDKS-NH2 [N3]

cellular permeability (A549 cells): poor
Molecule: Ac-IVELEQDLDHLKDEKE-NH2 [N1]

Continued, molecule first:

Molecule: Cc1ccccc1C(=O)N1CCc2cc(-c3nc(NC(=O)Cc4ccc5c(c4)OCO5)sc3C)ccc21 [ML-385]
binding to the Neh1 domain of NRF2 (Neh1 domain of NRF2): binds to the Neh1 domain of NRF2
cytotoxicity in combination with platinum-based drugs, doxorubicin or taxol [1]: substantially enhances cytotoxicity
binding of MAFG-NRF2 complex to regulatory DNA and downstream target gene expression [2]: inhibiting downstream target gene expression

Molecule: CC(=O)N[C@@H](CC(=O)O)C(=O)N[C@@H](CC(C)C)C(=O)N[C@@H](CC(=O)O)C(=O)N[C@@H](Cc1c[nH]cn1)C(=O)N[C@@H](CC(C)C)C(=O)N[C@@]1(C)CCCC=CCCC[C@@](C)(C(=O)N[C@@H](CCCCN)C(=O)N[C@@H](CC(C)C)C(=O)N[C@@H](CC(C)C)C(=O)N[C@@H](CCCCN)C(=O)N[C@@H](CCC(=O)O)C(=O)N[C@@H](CCCCN)C(N)=O)NC(=O)[C@H](CCCCN)NC(=O)[C@H](CCC(=O)O)NC(=O)[C@H](CC(=O)O)NC1=O [N2S] (Ac-DLDHL[S5]DEK[S5]KLLKEK-NH2; staple 6-10)
cellular and nuclear permeability (A549 cells): good
time at which significant degradation starts (proteinase K; 55 μM peptide): 40 min

Molecule: CC(=O)N[C@@H](CC(=O)O)C(=O)N[C@@H](CCC(=O)O)C(=O)N[C@@H](CCCCN)C(=O)N[C@@H](CCC(=O)O)C(=O)N[C@@H](CCCCN)C(=O)N[C@@H](CC(C)C)C(=O)N[C@@]1(C)CCCC=CCCC[C@@](C)(C(=O)N[C@@H](CCC(=O)O)C(=O)N[C@@H](CC(N)=O)C(=O)N[C@@H](CC(=O)O)C(=O)N[C@@H](CCCCN)C(=O)N[C@@H](CO)C(N)=O)NC(=O)[C@H](CCCCN)NC(=O)[C@H](CCC(=O)O)NC(=O)[C@H](CCCCN)NC1=O [N3S] (Ac-DEKEKL[S5]KEK[S5]ENDKS-NH2; staple 7-11)
accumulation in the nucleus (A549 cells): very little to no accumulation
cellular permeability (A549 cells): minimal
degradation by proteinase K (proteinase K; for up to 24 hours, 55 μM peptide): no significant degradation

B1: N1S (biotin-labeled) (peptide)
chain: IVELE[S5]DLD[S5]LKDEKE
modifications: staple 6-10; also: biotin-labeled
Kd (His-MafG): 337 nM
